{
  "source": "ChEMBL document CHEMBL4196171",
  "about": "“Design of Gut-Restricted Thiazolidine Agonists of G Protein-Coupled Bile Acid Receptor 1 (GPBAR1, TGR5)” (J Med Chem, 2018)",
  "key": {"[1]": {"test": "Cmax in C57BL/6 mouse plasma at 10 mg/kg, po by HPLC and mass spectrometry", "type": "ADME, organism-based", "parameters": "dose 10 mg/kg, route oral"}, "[2]": {"test": "Drug recovery in C57BL/6 mouse feces at 10 mg/kg, po after 48 hrs by LC-MS/MS method", "type": "ADME, organism-based", "details": "faeces, read-out: Drug recovery; call rule not given here"}, "[3]": {"test": "Drug recovery in C57BL/6 mouse bile/gall bladder at 30 mg/kg, po by LC-MS/MS method", "type": "ADME, organism-based", "details": "read-out: Drug recovery"}, "[4]": {"test": "Plasma concentration in C57BL/6 DIO mouse at 100 mg/kg, po measured after 4 to 16 hrs post dose by HPLC and mass spectrometry", "type": "ADME, organism-based", "details": "in vivo"}, "[5]": {"test": "Drug concentration in bile/gall bladder of C57BL/6 mouse at 30 mg/kg, po measured after 8 hrs by HPLC and mass spectrometry", "type": "ADME, organism-based", "details": "read-out: Drug uptake"}, "[6]": {"test": "Apparent permeability from apical to basolateral side in MDCK cells at 10 uM by HPLC-MS/MS method", "type": "ADME, cell-based, Canis lupus familiaris", "details": "dog"}, "[7]": {"test": "AUC in C57BL/6 mouse plasma at 10 mg/kg, po by HPLC and mass spectrometry", "type": "ADME, organism-based"}, "[8]": {"test": "Solubility in FeSSIF solution at 1 mg/ml at […] by HPLC with UV detector based assay", "type": "physicochemical"}, "[9]": {"test": "Plasma concentration in C57BL/6 mouse at 30 mg/kg, po measured after 8 hrs by HPLC and mass spectrometry", "type": "ADME, organism-based"}, "[10]": {"test": "Apparent permeability from basolateral to apical side in MDCK cells at 10 uM by HPLC-MS/MS method", "type": "ADME, cell-based, Canis lupus familiaris", "details": "dog"}, "[11]": {"test": "Plasma concentration in C57BL/6 DIO mouse at 30 mg/kg, po measured after 4 to 16 hrs post dose by HPLC and mass spectrometry", "type": "ADME, organism-based", "details": "in vivo"}},
  "data": [
    {"smiles": "O=C(NC[C@H](O)[C@@H](O)[C@H](O)[C@H](O)CO)c1ccc(COc2cc(Cl)c(CN3CSC[C@H]3C(=O)N3CCN(C4CC4)c4ccccc43)cc2Cl)cc1", "values": [
      {"measurement": "Cmax", "setting": "[1]", "value": 2, "unit": "ng/mL"},
      {"measurement": "dose excreted at 48 h", "setting": "[2]", "value": 83, "unit": "%"},
      {"measurement": "dose excreted", "setting": "[3]", "value": "< 0.01", "unit": "%"},
      {"measurement": "Drug uptake", "setting": "[4]", "value": "Not Active"},
      {"measurement": "concentration at 8 h", "setting": "[5]", "value": 0.09, "unit": "µM"},
      {"measurement": "Papp A→B at 10 µM", "setting": "[6]", "value": "< 0.1", "unit": "nm/s"},
      {"measurement": "AUC", "setting": "[7]", "value": "< 5", "unit": "ng·h/mL"},
      {"measurement": "solubility", "setting": "[8]", "value": 0.82, "unit": "mg/mL"},
      {"measurement": "concentration at 8 h", "setting": "[9]", "value": "< 2", "unit": "ng/mL"},
      {"measurement": "Papp B→A at 10 µM", "setting": "[10]", "value": 0.7, "unit": "nm/s"},
      {"measurement": "Drug uptake", "setting": "[11]", "value": "Not Active"}
    ]},
    {"smiles": "O=C([C@@H]1CCCN1Cc1cc(Cl)ccc1Cl)N1CCN(C2CC2)c2ccccc21", "values": [
      {"measurement": "solubility", "setting": "[8]", "value": 0.36, "unit": "mg/mL"}
    ]},
    {"smiles": "O=C(c1cccnc1Oc1cc(Cl)ccc1Cl)N1CCN(C2CC2)c2ccccc21", "values": [
      {"measurement": "solubility", "setting": "[8]", "value": "< 0.05", "unit": "mg/mL"}
    ]},
    {"smiles": "CN(C[C@H](O)[C@@H](O)[C@H](O)[C@H](O)CO)C(=O)CCCCc1cc(Cl)c(CN2CSC[C@H]2C(=O)N2CCN(C3CC3)c3ccccc32)cc1Cl", "values": [
      {"measurement": "concentration at 8 h", "setting": "[5]", "value": 1.3, "unit": "µM"},
      {"measurement": "concentration at 8 h", "setting": "[9]", "value": 3.6, "unit": "ng/mL"}
    ]},
    {"smiles": "O=C(CCCCc1cc(Cl)c(CN2CSC[C@H]2C(=O)N2CCN(C3CC3)c3ccccc32)cc1Cl)N[C@@H](C(=O)O)[C@@H](O)[C@H](O)[C@H](O)CO", "values": [
      {"measurement": "concentration at 8 h", "setting": "[5]", "value": 3.9, "unit": "µM"},
      {"measurement": "concentration at 8 h", "setting": "[9]", "value": 28.1, "unit": "ng/mL"}
    ]},
    {"smiles": "O=C(NCCCCCc1cc(Cl)c(CN2CSC[C@H]2C(=O)N2CCN(C3CC3)c3ccccc32)cc1Cl)NCP(=O)(O)O", "values": [
      {"measurement": "concentration at 8 h", "setting": "[5]", "value": 3.1, "unit": "µM"},
      {"measurement": "concentration at 8 h", "setting": "[9]", "value": 24.8, "unit": "ng/mL"}
    ]},
    {"smiles": "CN(C[C@H](O)[C@@H](O)[C@H](O)[C@H](O)CO)C(=O)CC[C@H](NC(=O)CCCCc1cc(Cl)c(CN2CSC[C@H]2C(=O)N2CCN(C3CC3)c3ccccc32)cc1Cl)C(=O)O", "values": [
      {"measurement": "concentration at 8 h", "setting": "[5]", "value": 1.9, "unit": "µM"},
      {"measurement": "concentration at 8 h", "setting": "[9]", "value": 2.3, "unit": "ng/mL"}
    ]},
    {"smiles": "O=C(O)CN(CCCCCc1cc(Cl)c(CN2CSC[C@H]2C(=O)N2CCN(C3CC3)c3ccccc32)cc1Cl)CC(=O)O", "values": [
      {"measurement": "concentration at 8 h", "setting": "[5]", "value": 4.7, "unit": "µM"}
    ]},
    {"smiles": "O=C(O)CNC(=O)CNC(=O)CNC(=O)CCCCc1cc(Cl)c(CN2CSC[C@H]2C(=O)N2CCN(C3CC3)c3ccccc32)cc1Cl", "values": [
      {"measurement": "concentration at 8 h", "setting": "[5]", "value": 0.6, "unit": "µM"},
      {"measurement": "concentration at 8 h", "setting": "[9]", "value": "< 0.5", "unit": "ng/mL"}
    ]},
    {"smiles": "O=C(NCCCN(CCCNC(=O)[C@H](O)[C@@H](O)[C@H](O)[C@H](O)CO)C(=O)NCCCCOc1cc(Cl)c(CN2CSC[C@H]2C(=O)N2CCN(C3CC3)c3ccccc32)cc1Cl)[C@H](O)[C@@H](O)[C@H](O)[C@H](O)CO", "values": [
      {"measurement": "concentration at 8 h", "setting": "[5]", "value": 0.3, "unit": "µM"}
    ]},
    {"smiles": "O=C(O)CNC(=O)[C@H](CSSC[C@H](NC(=O)CC[C@H](NC(=O)CCCCc1cc(Cl)c(CN2CSC[C@H]2C(=O)N2CCN(C3CC3)c3ccccc32)cc1Cl)C(=O)O)C(=O)NCC(=O)O)NC(=O)CC[C@H](NC(=O)CCCCc1cc(Cl)c(CN2CSC[C@H]2C(=O)N2CCN(C3CC3)c3ccccc32)cc1Cl)C(=O)O", "values": [
      {"measurement": "concentration at 8 h", "setting": "[5]", "value": "< 0.1", "unit": "µM"},
      {"measurement": "concentration at 8 h", "setting": "[9]", "value": "< 10", "unit": "ng/mL"}
    ]},
    {"smiles": "O=C(O)CN(C[C@H](O)[C@@H](O)[C@H](O)[C@H](O)CO)C(=O)CCCCc1cc(Cl)c(CN2CSC[C@H]2C(=O)N2CCN(C3CC3)c3ccccc32)cc1Cl", "values": [
      {"measurement": "concentration at 8 h", "setting": "[5]", "value": 3.7, "unit": "µM"}
    ]},
    {"smiles": "O=C(NCCCCCc1cc(Cl)c(CN2CSC[C@H]2C(=O)N2CCN(C3CC3)c3ccccc32)cc1Cl)NC(CO)(CO)CO", "values": [
      {"measurement": "concentration at 8 h", "setting": "[5]", "value": 6, "unit": "µM"},
      {"measurement": "concentration at 8 h", "setting": "[9]", "value": 1.2, "unit": "ng/mL"}
    ]},
    {"smiles": "C[C@@H](NC(=O)[C@@H](C)NC(=O)[C@@H](C)NC(=O)CCCCc1cc(Cl)c(CN2CSC[C@H]2C(=O)N2CCN(C3CC3)c3ccccc32)cc1Cl)C(=O)O", "values": [
      {"measurement": "concentration at 8 h", "setting": "[5]", "value": 1.7, "unit": "µM"},
      {"measurement": "concentration at 8 h", "setting": "[9]", "value": 0.6, "unit": "ng/mL"}
    ]},
    {"smiles": "O=C(NCCCCCc1cc(Cl)c(CN2CSC[C@H]2C(=O)N2CCN(C3CC3)c3ccccc32)cc1Cl)N1CCN(CP(=O)(O)O)CC1", "values": [
      {"measurement": "concentration at 8 h", "setting": "[5]", "value": 0.08, "unit": "µM"},
      {"measurement": "concentration at 8 h", "setting": "[9]", "value": 2.8, "unit": "ng/mL"}
    ]}
  ]
}
